Assay results from ChEMBL document CHEMBL1201862, “PubChem BioAssay data set” (2004).
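Compound exposure: 48 hours, 5 concentrations, 96-well plates. Here, GI50 denotes the concentration required for 50% inhibition of growth.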 The source made the active and inactive calls. Rule as the data show it: active = GI50 up to about 1.1 µM and inactive = higher.

Assays:
Assay in all cases: inhibition of tumour cell growth, NCI panel, 48 h
[1] = system: DU-145
[2] = system: EKVX
[3] = system: HCT-116
[4] = system: Hs-578T
[5] = system: K562
[6] = system: MDA-MB-231
[7] = system: MOLT-4
[8] = system: Malme-3M
[9] = system: NCI-H460
[10] = system: NCI-H522
[11] = system: NCI/ADR-RES
[12] = system: OVCAR-3
[13] = system: OVCAR-5
[14] = system: OVCAR-8
[15] = system: SN12C
[16] = system: SR
[17] = system: UO-31
[18] = system: A498
[19] = system: CCRF-CEM
[20] = system: IGROV-1

Measured: GI50

COc1cc(C(=O)Nc2nnc(S(N)(=O)=O)s2)cc(OC)c1OC
inactive: [1] > 100 µM | [2] > 100 µM | [3] > 100 µM | [4] > 100 µM | [5] > 100 µM | [6] > 100 µM | [7] > 100 µM | [8] > 100 µM | [9] > 100 µM | [10] > 100 µM | [11] > 100 µM | [12] > 100 µM | [13] > 100 µM | [14] > 100 µM | [15] > 100 µM | [16] > 100 µM | [17] > 100 µM

O=[N+]([O-])C(=C1Nc2ccccc2N1)C(Cl)=C(Cl)Cl
inactive: [18] > 100 µM | [19] 32.4 µM | [1] > 100 µM | [2] > 100 µM | [3] 88.1 µM | [4] 49.8 µM | [20] > 100 µM | [5] 81.7 µM | [6] 24.8 µM | [7] 19.8 µM | [8] 30.3 µM | [9] > 100 µM | [10] > 100 µM | [12] 18.6 µM | [13] > 100 µM | [14] 74.5 µM | [15] > 100 µM | [16] 51.3 µM | [17] 65 µM

N#Cc1ccc(Oc2nc3ccccc3nc2-c2ccccc2)cc1
inactive: [18] > 100 µM | [19] > 100 µM | [1] > 100 µM | [2] > 100 µM | [3] > 100 µM | [4] > 100 µM | [20] > 100 µM | [5] > 100 µM | [6] > 100 µM | [7] > 100 µM | [8] > 100 µM | [9] > 100 µM | [10] > 100 µM | [12] > 100 µM | [13] > 100 µM | [15] > 100 µM | [17] > 100 µM

CC(=O)O[C@@H]1C[C@@]23C[C@@]24CC[C@H](OC2OCC(O)C(O)C2O)C(C)(C)[C@@H]4CC=C3[C@]2(C)C[C@@H]3OC4(C[C@@H](C)[C@@H]3[C@@]12C)OC(O)[C@@]1(C)O[C@@H]41 (stereo partly specified)
inactive: [18] 32.1 µM | [19] 11.7 µM | [1] 43.2 µM | [2] 33.4 µM | [3] 19.4 µM | [4] 40.4 µM | [20] 36.5 µM | [5] 23.8 µM | [6] 21.1 µM | [8] 33.2 µM | [9] 25.3 µM | [10] 23 µM | [11] 43.9 µM | [12] 12.1 µM | [13] 47.5 µM | [14] 41.7 µM | [15] 31.5 µM | [17] 41.8 µM

O=c1oc2ccccc2c(-c2ccc(O)cc2)c1Oc1ccccc1
inactive: [18] 7.71 µM | [19] 25.4 µM | [1] 4.25 µM | [2] 15.7 µM | [3] 20 µM | [4] 7.5 µM | [20] 6.44 µM | [5] 34.6 µM | [6] 3.17 µM | [7] 28.8 µM | [8] 2.58 µM | [9] 6.85 µM | [10] 3.47 µM | [12] 17.5 µM | [13] 18.8 µM | [15] 21.5 µM | [16] 41.8 µM | [17] 7.73 µM

CCC(C#N)NCc1ccc(CNC(C#N)CC)cc1 (stereo unspecified)
inactive: [18] > 100 µM | [19] > 100 µM | [1] > 100 µM | [2] > 100 µM | [3] > 100 µM | [4] > 100 µM | [20] > 100 µM | [5] > 100 µM | [6] > 100 µM | [7] > 100 µM | [8] > 100 µM | [9] > 100 µM | [10] > 100 µM | [11] > 100 µM | [12] > 100 µM | [13] > 100 µM | [14] > 100 µM | [15] > 100 µM | [17] 95.7 µM

OC(C1CCCC1=N/N=C1/CCCC1C(O)(C(F)(F)Cl)C(F)(F)Cl)(C(F)(F)Cl)C(F)(F)Cl (stereo unspecified)
inactive: [18] > 10 µM | [19] > 10 µM | [1] > 10 µM | [2] > 10 µM | [3] > 10 µM | [4] > 10 µM | [20] > 10 µM | [5] > 10 µM | [6] > 10 µM | [7] > 10 µM | [8] > 10 µM | [9] > 10 µM | [10] > 10 µM | [11] > 10 µM | [12] > 10 µM | [13] > 10 µM | [14] > 10 µM | [15] > 10 µM

Cc1ccc(C(=O)N/N=C(\N=N\c2ccccc2Cl)c2ccc(N(C)C)cc2)cc1
inactive: [19] 16.6 µM | [1] 2.61 µM | [2] 27.2 µM | [3] 29.2 µM | [4] > 100 µM | [20] > 100 µM | [5] 17.1 µM | [6] 52.6 µM | [7] 20 µM | [9] 37.3 µM | [10] 27.5 µM | [11] 27.3 µM | [12] 30.3 µM | [13] 68.4 µM | [14] 61.5 µM | [15] > 100 µM | [16] 18.1 µM | [17] 29.4 µM

CCOC(=O)Cn1nnc2ccc(Nc3nc4ccccc4nc3-c3ccccc3)cc21
inactive: [18] > 100 µM | [19] > 100 µM | [1] 11 µM | [2] > 100 µM | [3] 95.3 µM | [4] 75.2 µM | [20] > 100 µM | [5] > 100 µM | [7] > 100 µM | [8] > 100 µM | [9] 48.6 µM | [10] > 100 µM | [11] > 100 µM | [12] 60.7 µM | [13] > 100 µM | [14] > 100 µM | [15] > 100 µM | [16] > 100 µM | [17] 4.72 µM

Cc1nn(-c2ccccc2)c2c1N=C(C(=O)O)CC(c1ccccc1)=N2
inactive: [1] > 10 µM | [3] > 10 µM | [4] > 10 µM | [20] > 10 µM | [5] > 10 µM | [6] > 10 µM | [7] > 10 µM | [8] > 10 µM | [10] > 10 µM | [11] > 10 µM | [12] > 10 µM | [14] > 10 µM | [15] > 10 µM | [16] > 10 µM

CC(=O)OCC1OC(Oc2cc(C)c(O)cc2C/C=C(\C)CC/C=C(\C)C[C@@H](C=C(C)C)OC(C)=O)C(O)C(OC(C)=O)C1OC(C)=O (stereo partly specified)
inactive: [18] 15.2 µM | [19] 9.46 µM | [1] 28.6 µM | [2] 38.6 µM | [3] 23.2 µM | [4] 13.6 µM | [20] 33.6 µM | [5] 11.6 µM | [6] 37.3 µM | [7] 8.26 µM | [8] > 50 µM | [9] 14.2 µM | [10] 17.1 µM | [11] 16.8 µM | [12] 13.4 µM | [13] > 50 µM | [14] 16.1 µM | [15] 20.2 µM | [17] 18 µM

OC1CCCN(C2(c3cccs3)CCCCC2)C1 (stereo unspecified)
inactive: [18] > 100 µM | [1] > 100 µM | [2] > 100 µM | [3] > 100 µM | [4] > 100 µM | [20] 97.5 µM | [5] > 100 µM | [6] > 100 µM | [7] > 100 µM | [8] > 100 µM | [9] > 100 µM | [10] > 100 µM | [11] > 100 µM | [12] > 100 µM | [13] > 100 µM | [14] > 100 µM | [15] > 100 µM

Cn1c(=O)n(-c2c3ccccc3c(Cl)c3ccccc23)n(C(C)(C)C)c1=O
inactive: [18] > 100 µM | [19] > 100 µM | [1] > 100 µM | [2] > 100 µM | [3] > 100 µM | [4] 41.3 µM | [20] > 100 µM | [5] > 100 µM | [6] 97.1 µM | [7] > 100 µM | [8] > 100 µM | [9] > 100 µM | [10] > 100 µM | [11] > 100 µM | [12] > 100 µM | [13] > 100 µM | [14] 49.5 µM | [15] > 100 µM | [17] > 100 µM

Oc1[nH]c(NCc2ccc(Cl)cc2)nc2ncnc1-2
inactive: [18] > 100 µM | [19] > 100 µM | [1] > 100 µM | [2] > 100 µM | [3] > 100 µM | [4] 44.8 µM | [20] > 100 µM | [5] > 100 µM | [6] > 100 µM | [7] > 100 µM | [8] > 100 µM | [9] > 100 µM | [10] 30.3 µM | [11] > 100 µM | [12] > 100 µM | [13] > 100 µM | [14] > 100 µM | [15] > 100 µM | [17] > 100 µM
